Laboratory results from US20210261512A1, “NOVEL COMPOUNDS” (INFLAZOME LIMITED, priority 2018, published 2021).

Assays:
NLRP3 [1] = biological target: T1, NLRP3 (Homo sapiens, UniProt Q96P20); experiment: THP-1 cells pyroptosis assay; assay type: cell-based; design: Seed THP-1 cells (25,000 cells/well) containing 1.0 μg/ml LPS; host or cells: THP-1; settings: LPS 1.0 μg/ml, nigericin 5 μM, resazurin readout, 10 μM top dose (Example 2: top dose of 30 μM)
Outline: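 THP-1 cells (25,000/well) primed with 1 μg/ml LPS in serum-free RPMI, treated with compound (8-point dilution, 10 μM top unless stated; 0.1% DMSO) 3 h at 37°C, then nigericin 5 μM 1 h. Viability read by resazurin (100 μM, 1-2 h) fluorescence; IC50 from 4-parameter fit.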

NLRP3 [2] = biological target: T1, NLRP3; experiment: Human whole blood IL1β release assay; assay type: cell-based; settings: LPS 1 μg/ml, nigericin 10 μM, IL-1β AlphaLisa, 10 μM top dose (Example 2: top dose of 30 μM), read-out: HWB IC50
Procedure: For systemic delivery, the ability to inhibit NLRP3 when the compounds are present within the bloodstream is of great importance. For this reason, the NLRP3 inhibitory activity of a number of compounds in human whole blood was investigated in accordance with the following protocol.
Human whole blood in sodium-heparin or lithium-heparin tubes was obtained from healthy donors from a volunteer donor panel. • 1. Plate out 80 μl of whole blood containing 1 μg/ml of LPS in 96-well, clear bottom cell culture plate (Corning #3585) • 2. Add 10 μl compound (8 points half-log dilution with 10 μM top dose, unless stated otherwise) or vehicle (DMSO 0.1% FAC) to the appropriate wells • 3. Incubate for 3 hrs at 37° C., 5% CO2 • 4. Add 10 μl nigericin (Sigma #N7143) (10 μM FAC) to all wells • 5. Incubate for 1 hr at 37° C., 5% CO2 • 6. At the end of the incubation period, spin plates at 300×g for 5 mins to pellet cells and remove 20 μl of supernatant and add to 96-well v-bottom plates for IL-1β analysis (note: these plates containing the supernatants can be stored at −80° C. to be analysed at a later date) • 7. IL-1β was measured according to the manufacturer protocol (Perkin Elmer-AlphaLisa IL-1 Kit AL220F-5000) • 8. IC50 data is fitted to a non-linear regression equation (log inhibitor vs response-variable slope 4-parameters)

[3] = PK, intravenous administration; assay type: in vivo; settings: rat, plasma, male Sprague Dawley rats, dose about 1 mg/kg; for Vd: read-out: Vdss
Procedure: Pharmacokinetic parameters were determined in male Sprague Dawley rats (Vital River Laboratory Animal Technology Co Ltd, Beijing, China, 6-9 weeks old). Animals were maintained under a 12 h light/dark cycle. Animals had free access to food and water, except that orally dosed animals were food deprived overnight prior to the study.
For intravenous administration, compounds were formulated as a solution (in DMSO:water [10:90] or in DMSO:PBS [10:90]) in 2 mL/kg dosing volume and administered via tail vein. For oral administration, compounds were formulated as a solution (in 0.5% methylcellulose in water) in […] dosing volume and administered orally.
Serial blood samples (about 200 μL) were taken from each animal at each of 8 time-points post dose ([…], 0.25, 0.5, 1, 2, 4, 8 and 24 h). Samples were held on ice for no longer than 30 minutes before centrifugation (5,696 rpm (3,000 g) for 15 minutes) for plasma generation. Plasma was frozen on dry ice prior to bioanalysis. PK parameters were generated from LC-MS/MS data using Phoenix WinNonlin 6.3 software.

T1 sequence (Q96P20 whole entry): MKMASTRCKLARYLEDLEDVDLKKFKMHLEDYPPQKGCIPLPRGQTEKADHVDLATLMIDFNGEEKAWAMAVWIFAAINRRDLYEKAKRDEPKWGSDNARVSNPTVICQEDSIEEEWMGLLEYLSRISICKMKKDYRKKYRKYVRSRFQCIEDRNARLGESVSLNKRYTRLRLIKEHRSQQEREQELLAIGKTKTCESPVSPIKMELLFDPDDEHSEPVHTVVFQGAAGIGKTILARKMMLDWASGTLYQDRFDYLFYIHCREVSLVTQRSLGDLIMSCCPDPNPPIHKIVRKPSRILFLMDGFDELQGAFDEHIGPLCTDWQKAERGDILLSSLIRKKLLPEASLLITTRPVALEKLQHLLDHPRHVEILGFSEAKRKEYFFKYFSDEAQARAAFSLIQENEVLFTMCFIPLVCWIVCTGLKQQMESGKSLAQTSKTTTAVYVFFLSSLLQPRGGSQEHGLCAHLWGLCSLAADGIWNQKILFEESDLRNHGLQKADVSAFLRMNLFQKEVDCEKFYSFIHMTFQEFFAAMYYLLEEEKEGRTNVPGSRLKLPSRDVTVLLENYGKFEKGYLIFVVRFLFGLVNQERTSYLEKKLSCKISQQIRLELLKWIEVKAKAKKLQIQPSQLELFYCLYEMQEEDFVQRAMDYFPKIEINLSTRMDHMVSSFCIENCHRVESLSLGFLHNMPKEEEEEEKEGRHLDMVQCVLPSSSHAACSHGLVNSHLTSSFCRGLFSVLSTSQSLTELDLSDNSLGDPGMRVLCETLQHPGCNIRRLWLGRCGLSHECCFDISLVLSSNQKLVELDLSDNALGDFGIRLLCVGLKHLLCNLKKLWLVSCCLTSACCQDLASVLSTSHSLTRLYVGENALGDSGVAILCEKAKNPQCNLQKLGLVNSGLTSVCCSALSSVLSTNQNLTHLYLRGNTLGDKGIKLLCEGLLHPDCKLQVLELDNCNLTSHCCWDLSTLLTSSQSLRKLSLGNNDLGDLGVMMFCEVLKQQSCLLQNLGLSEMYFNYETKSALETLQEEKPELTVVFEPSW

IC50 (NLRP3 [1]) [nM]	IC50 (NLRP3 [2]) [nM]	AUC [3] [ng·h/mL]	clearance [3] [mL/min/kg]	half-life [3] [min]	Vd [3] [L/kg]	SMILES
≤ 500	≤ 1000					CN(C)C1CCN(S(=O)(=O)c2nnc(Nc3c4c(c(F)c5c3CCC5)CCC4)[nH]2)CC1 [Example 224, 1-((5-((8-fluoro-1,2,3,5,6,7-hexahydro-s-indacen-4-yl)amino)-4H-1,2,4-triazol-3-yl)sulfonyl)-N,N-dimethylpiperidin-4-amine]
≤ 1000	≤ 5000					COc1cc(-c2cc(C#N)c3c(c2Nc2nnc(S(=O)(=O)c4ccccc4)[nH]2)CCC3)ccn1 [Example 192, 6-(2-methoxypyridin-4-yl)-7-((5-(phenylsulfonyl)-4H-1,2,4-triazol-3-yl)amino)-2,3-dihydro-1H-indene-4-carbonitrile]
≤ 500	≤ 500					CC(C)c1cnn(-c2ccncc2)c1Nc1nnc(S(=O)(=O)N2CCC(N(C)C)CC2)[nH]1 [Example 197, 1-((5-((4-isopropyl-1-(pyridin-4-yl)-1H-pyrazol-5-yl)amino)-4H-1,2,4-triazol-3-yl)sulfonyl)-N,N-dimethylpiperidin-4-amine]
≤ 1000	≤ 5000					CCN(CC)CCCS(=O)(=O)c1nnc(Nc2c(-c3ccncc3)cc(F)c3c2CCC3)[nH]1 [Example 77, 5-((3-(diethylamino)propyl)sulfonyl)-N-(7-fluoro-5-(pyridin-4-yl)-2,3-dihydro-1H-inden-4-yl)-4H-1,2,4-triazol-3-amine]
≤ 1000	≤ 1000					O=S(=O)(c1nnc(Nc2c3c(cc4c2CCC4)CCC3)[nH]1)N1CC[C@H](CN2CCCC2)C1 [Example 306, (R)—N-(1,2,3,5,6,7-hexahydro-s-indacen-4-yl)-5-((3-(pyrrolidin-1-ylmethyl)pyrrolidin-1-yl)sulfonyl)-4H-1,2,4-triazol-3-amine]
≤ 500	≤ 500					CCN(CC)C[C@@H]1CCN(S(=O)(=O)c2nnc(Nc3c4c(cc5c3CCC5)CCC4)[nH]2)C1 [Example 143, (S)-5-((3-((diethylamino)methyl)pyrrolidin-1-yl)sulfonyl)-N-(1,2,3,5,6,7-hexahydro-s-indacen-4-yl)-4H-1,2,4-triazol-3-amine]
≤ 500	≤ 1000					CN1CCCCC1CCS(=O)(=O)c1nnc(Nc2c3c(cc4c2CCC4)CCC3)[nH]1 (stereo not drawn) [Example 59, N-(1,2,3,5,6,7-Hexahydro-s-indacen-4-yl)-3-((2-(1-methylpiperidin-2-yl)ethyl)sulfonyl)-1H-1,2,4-triazol-5-amine]
≤ 500	≤ 500					CN(C)C[C@H]1CCN(S(=O)(=O)c2nnc(Nc3c4c(cc5c3CCC5)CCC4)[nH]2)C1 [Example 148, (R)-5-((3-((dimethylamino)methyl)pyrrolidin-1-yl)sulfonyl)-N-(1,2,3,5,6,7-hexahydro-s-indacen-4-yl)-4H-1,2,4-triazol-3-amine]
≤ 1000	≤ 10000					CC(C)(O)[C@@H]1CCN(S(=O)(=O)c2nnc(Nc3c4c(cc5c3CCC5)CCC4)[nH]2)C1 [Example 330, (R)-2-(1-((5-((1,2,3,5,6,7-hexahydro-s-indacen-4-yl)amino)-4H-1,2,4-triazol-3-yl)sulfonyl)pyrrolidin-3-yl)propan-2-ol]
≤ 500	≤ 5000					COc1cc(-c2ccc3c(c2Nc2nnc(S(=O)(=O)c4cccc(CN(C)C)c4)[nH]2)CCC3)ccn1 [Example 329, 5-((3-((dimethylamino)methyl)-phenyl)sulfonyl)-N-(5-(2-methoxypyridin-4-yl)-2,3-dihydro-1H-inden-4-yl)-4H-1,2,4-triazol-3-amine]
≤ 500	≤ 10000					COC(C)(C)Cn1ccc(S(=O)(=O)c2nnc(Nc3c4c(cc5c3CCC5)CCC4)[nH]2)n1 [Example 18, N-(1,2,3,5,6,7-hexahydro-s-indacen-4-yl)-5-((1-(2-methoxy-2-methylpropyl)-1H-pyrazol-3-yl)sulfonyl)-4H-1,2,4-triazol-3-amine]
≤ 500	≤ 1000					CN(C)C1CCN(S(=O)(=O)c2nnc(Nc3c(-c4ccnc(OC(F)F)c4)ccc4c3CCO4)[nH]2)CC1 [Example 225, 1-((5-((5-(2-(difluoromethoxy)pyridin-4-yl)-2,3-dihydrobenzofuran-4-yl)amino)-4H-1,2,4-triazol-3-yl)sulfonyl)-N,N-dimethylpiperidin-4-amine]
≤ 5000	≤ 10000					CN(C)CC1CCN(S(=O)(=O)c2nnc(Oc3c4c(cc5c3CCC5)CCC4)[nH]2)C1 (stereo not drawn) [Example 286, 1-(1-((5-((1,2,3,5,6,7-hexahydro-s-indacen-4-yl)oxy)-4H-1,2,4-triazol-3-yl)sulfonyl)pyrrolidin-3-yl)-N,N-dimethylmethanamine]
≤ 5000	≤ 5000					CN(C)C1CCN(S(=O)(=O)c2nnc(Nc3c4c(cc5c3CCC5)CCC4)[nH]2)C1 (stereo not drawn) [Example 93, 5-((3-(dimethylamino)pyrrolidin-1-yl)sulfonyl)-N-(1,2,3,5,6,7-hexahydro-s-indacen-4-yl)-4H-1,2,4-triazol-3-amine]
≤ 5000	≤ 5000					CN(C1CNC1)S(=O)(=O)c1nnc(Nc2c3c(cc4c2CCC4)CCC3)[nH]1 [Example 120, N-(azetidin-3-yl)-5-((1,2,3,5,6,7-hexahydro-s-indacen-4-yl)amino)-N-methyl-4H-1,2,4-triazole-3-sulfonamide]
≤ 500		186	90.6	43.8	4.21	CN1CCC2(C1)CN(S(=O)(=O)c1nnc(Nc3c(-c4ccnc(OC(F)F)c4)ccc4c3CCC4)[nH]1)C2 [Example 213, N-(5-(2-(difluoromethoxy)pyridin-4-yl)-2,3-dihydro-1H-inden-4-yl)-5-((6-methyl-2,6-diazaspiro[3.4]octan-2-yl)sulfonyl)-4H-1,2,4-triazol-3-amine]
≤ 5000		2250	6.9	55.8	0.38	Cn1cc(S(=O)(=O)c2nnc(Nc3c4c(cc5c3CCC5)CCC4)[nH]2)cn1 [Example 159, N-(1,2,3,5,6,7-hexahydro-s-indacen-4-yl)-5-((1-methyl-1H-pyrazol-4-yl)sulfonyl)-4H-1,2,4-triazol-3-amine]
≤ 1000		1460	11.4	54	0.54	O=S(=O)(c1ccccc1)c1nnc(Nc2c3c(cc4c2CCC4)CCC3)[nH]1 [Example 40, N-(1,2,3,5,6,7-hexahydro-s-indacen-4-yl)-5-(phenylsulfonyl)-1H-1,2,4-triazol-3-amine]
≤ 500		315	52.9	35.4	1.7	CN1CCOCC12CCN(S(=O)(=O)c1nnc(Nc3c4c(cc5c3CCC5)CCC4)[nH]1)CC2 [Example 296, N-(1,2,3,5,6,7-hexahydro-s-indacen-4-yl)-5-((1-methyl-4-oxa-1,9-diazaspiro[5.5]undecan-9-yl)sulfonyl)-4H-1,2,4-triazol-3-amine]
≤ 10000		3160	5.28	53.5	0.149	CS(=O)(=O)c1nnc(Nc2c(-c3ccnc(OC4CCCOC4)c3)ccc3c2CCC3)[nH]1 (stereo not drawn) [Example 236, 5-(methylsulfonyl)-N-(5-(2-((tetrahydro-2H-pyran-3-yl)oxy)pyridin-4-yl)-2,3-dihydro-1H-inden-4-yl)-4H-1,2,4-triazol-3-amine]
≤ 5000		221	75.4	27.5	1.45	COc1cc(-c2ccc3c(c2Nc2nnc(S(=O)(=O)c4ccccc4C#N)[nH]2)CCC3)ccn1 [Example 310, 2-((5-((5-(2-methoxypyridin-4-yl)-2,3-dihydro-1H-inden-4-yl)amino)-4H-1,2,4-triazol-3-yl)sulfonyl)benzonitrile]
